The text below walks through data of patent publication US20240376084A1, “INHIBITORS OF ALPHA-HEMOLYSIN OF STAPHYLOCOCCUS AUREUS” (Helmholtz-Zentrum Fur Infektionsforschung GmbH, priority 2021, published 2024).

Experiment [1] deals with hemolysin alpha from Staphylococcus aureus (Staphylococcus aureus, UniProt P09616). In words: cell-based.
For experiment [2], the target named is S. aureus Alpha hemolysin (Staphylococcus aureus, UniProt P09616). As to the kind of experiment: cell-based. The conditions noted are these: A549-LDH Assay activity.
Chain of S. aureus Alpha hemolysin (P09616 27-319 limits assumed): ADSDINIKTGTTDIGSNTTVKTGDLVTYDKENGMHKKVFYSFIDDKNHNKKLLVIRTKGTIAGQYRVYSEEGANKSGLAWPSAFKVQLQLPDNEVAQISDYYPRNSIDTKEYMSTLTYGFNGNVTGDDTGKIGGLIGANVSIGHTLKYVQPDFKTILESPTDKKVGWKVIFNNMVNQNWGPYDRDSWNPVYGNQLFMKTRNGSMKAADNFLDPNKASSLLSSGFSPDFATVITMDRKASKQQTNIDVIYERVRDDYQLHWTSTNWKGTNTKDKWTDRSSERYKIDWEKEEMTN

Chain of hemolysin alpha from Staphylococcus aureus (P09616 27-319 limits assumed): as above

For `Cc1cc2[nH]c(=O)c(=O)[nH]c2cc1S(=O)(=O)Nc1ccc(-c2cccc(Cl)c2)c(Cl)c1` [Compound 26, N-(2,3′-dichloro-[1,1′-biphenyl]-4-yl)-7-methyl-2,3-dioxo-1,2,3,4-tetrahydroquinoxaline-6-sulfonamide], the IC50 (commonly the concentration that gives 50% inhibition) in experiment [1] was under 30 nM. Further, the EC50 (as a rule, the concentration needed to bring the measured effect to its halfway point) in experiment [2] fell in the range of 30 to 100 nM.
In turn, `O=c1[nH]c2cc(F)c(S(=O)(=O)Nc3ccc(-c4cccc(N5CCCC5)c4)c(Cl)c3)cc2[nH]c1=O` [Compound 27, N-(2-chloro-3′-(pyrrolidin-1-yl)-[1,1′-biphenyl]-4-yl)-7-fluoro-2,3-dioxo-1,2,3,4-tetrahydroquinoxaline-6-sulfonamide] had an IC50 in experiment [1] of under 30 nM. The EC50 in experiment [2] was in the range of 1000 to 6000 nM.
Molecule `Cc1cc2[nH]c(=O)c(=O)[nH]c2cc1S(=O)(=O)Nc1ccc(OC(F)(F)F)cc1` [Compound 28, 7-methyl-2,3-dioxo-N-(4-(trifluoromethoxy)phenyl)-1,2,3,4-tetrahydroquinoxaline-6-sulfonamide] came in with an IC50 in experiment [1] of under 30 nM. The EC50 in experiment [2] is under 30 nM.
With `Cc1cc2[nH]c(=O)c(=O)[nH]c2cc1S(=O)(=O)Nc1ccc(-c2cccnc2)c(Cl)c1` [Compound 29, N-(3-chloro-4-(pyridin-3-yl)phenyl)-7-methyl-2,3-dioxo-1,2,3,4-tetrahydroquinoxaline-6-sulfonamide], the IC50 in experiment [1] was under 30 nM. For the same molecule, the EC50 in experiment [2] is 100 to 1000 nM.
Turning to `Cc1cc2[nH]c(=O)c(=O)[nH]c2cc1S(=O)(=O)Nc1ccc(-c2ccnc(Cl)c2)c(Cl)c1` [Compound 30, N-(3-chloro-4-(2-chloropyridin-4-yl)phenyl)-7-methyl-2,3-dioxo-1,2,3,4-tetrahydroquinoxaline-6-sulfonamide], the IC50 in experiment [1] was under 30 nM. Further, the EC50 in experiment [2] was in the range of 30 to 100 nM.
With `CC(C)c1cc2[nH]c(=O)c(=O)[nH]c2cc1S(=O)(=O)Nc1ccc(OC(F)(F)F)cc1` [Compound 31, 7-isopropyl-2,3-dioxo-N-(4-(trifluoromethoxy)phenyl)-1,2,3,4-tetrahydroquinoxaline-6-sulfonamide], in experiment [1], the IC50 is under 30 nM. In experiment [2], this molecule displayed an EC50 of under 30 nM.
In experiment [1], `O=c1[nH]c2cc(Cl)c(S(=O)(=O)Nc3ccc(-c4ccsc4)c(Cl)c3)cc2[nH]c1=O` [Compound 32, 7-chloro-N-(3-chloro-4-(thiophen-3-yl)phenyl)-2,3-dioxo-1,2,3,4-tetrahydroquinoxaline-6-sulfonamide] yielded an IC50 of under 30 nM. In experiment [2], the EC50 lay within 100 to 1000 nM.
In turn, `Cc1cc(NS(=O)(=O)c2cc3[nH]c(=O)c(=O)[nH]c3cc2F)ccc1-c1ccccc1` [Compound 33, 7-fluoro-N-(2-methyl-[1,1′-biphenyl]-4-yl)-2,3-dioxo-1,2,3,4-tetrahydroquinoxaline-6-sulfonamide] gave an IC50 in experiment [1] of under 30 nM. In experiment [2], this molecule displayed an EC50 of 30 to 100 nM.
As for `CN(C)c1cccc(-c2ccc(NS(=O)(=O)c3cc4[nH]c(=O)c(=O)[nH]c4cc3F)cc2Cl)c1` [Compound 34, N-(2-chloro-3′-(dimethylamino)-[1,1′-biphenyl]-4-yl)-7-fluoro-2,3-dioxo-1,2,3,4-tetrahydroquinoxaline-6-sulfonamide], the IC50 in experiment [1] was under 30 nM. In experiment [2], the EC50 was in the range of 100 to 1000 nM.
For `O=c1[nH]c2cc(Cl)c(S(=O)(=O)Nc3ccc(-c4cccc(Cl)c4)c(Cl)c3)cc2[nH]c1=O` [Compound 35, 7-chloro-N-(2,3′-dichloro-[1,1′-biphenyl]-4-yl)-2,3-dioxo-1,2,3,4-tetrahydroquinoxaline-6-sulfonamide] the same measures were under 30 nM and 100 to 1000 nM.
In experiment [1], `O=c1[nH]c2cc(F)c(S(=O)(=O)Nc3ccc(-c4ccccc4F)c(Cl)c3)cc2[nH]c1=O` [Compound 36, N-(2-chloro-2′-fluoro-[1,1′-biphenyl]-4-yl)-7-fluoro-2,3-dioxo-1,2,3,4-tetrahydroquinoxaline-6-sulfonamide] registered an IC50 of under 30 nM. For the same molecule, the EC50 in experiment [2] is 100 to 1000 nM.
For `Cc1cc2[nH]c(=O)c(=O)[nH]c2cc1S(=O)(=O)Nc1ccc(-c2ccncc2)c(Cl)c1` [Compound 37, N-(3-chloro-4-(pyridin-4-yl)phenyl)-7-methyl-2,3-dioxo-1,2,3,4-tetrahydroquinoxaline-6-sulfonamide], in that order: under 30 nM and 30 to 100 nM.
Regarding `Cc1ccc(-c2ccc(NS(=O)(=O)c3cc4[nH]c(=O)c(=O)[nH]c4cc3C)cc2Cl)cc1` [Compound 38, N-(2-chloro-4′-methyl-[1,1′-biphenyl]-4-yl)-7-methyl-2,3-dioxo-1,2,3,4-tetrahydroquinoxaline-6-sulfonamide], the IC50 in experiment [1] lay in the range of 30 to 100 nM. The EC50 in experiment [2] fell in the range of 100 to 1000 nM.
For the molecule `Cc1cc2[nH]c(=O)c(=O)[nH]c2cc1S(=O)(=O)Nc1ccc(-c2cccc(C(C)C)c2)c(Cl)c1` [Compound 39, N-(2-chloro-3′-isopropyl-[1,1′-biphenyl]-4-yl)-7-methyl-2,3-dioxo-1,2,3,4-tetrahydroquinoxaline-6-sulfonamide], the IC50 in experiment [1] lay in the range of 30 to 100 nM. The same molecule came in with an EC50 in experiment [2] of 1000 to 6000 nM.
In the case of `O=c1[nH]c2cc(F)c(S(=O)(=O)Nc3ccc(-c4ccccc4)c(Cl)c3)cc2[nH]c1=O` [Compound 40, N-(2-chloro-[1,1′-biphenyl]-4-yl)-7-fluoro-2,3-dioxo-1,2,3,4-tetrahydroquinoxaline-6-sulfonamide], the IC50 in experiment [1] is 30 to 100 nM. In experiment [2], the EC50 is 100 to 1000 nM.
For `CCCc1ccc(NS(=O)(=O)c2cc3[nH]c(=O)c(=O)[nH]c3cc2Br)cc1` [Compound 41, 7-bromo-2,3-dioxo-N-(4-propylphenyl)-1,2,3,4-tetrahydroquinoxaline-6-sulfonamide] the same measures were 30 to 100 nM and 30 to 100 nM.
Take `Cc1cc2[nH]c(=O)c(=O)[nH]c2cc1S(=O)(=O)Nc1cc(C)c(-c2ccsc2)c(C)c1` [Compound 42, N-(3,5-dimethyl-4-(thiophen-3-yl)phenyl)-7-methyl-2,3-dioxo-1,2,3,4-tetrahydroquinoxaline-6-sulfonamide]: the IC50 in experiment [1] was in the range of 30 to 100 nM. Besides, in experiment [2], the EC50 was 100 to 1000 nM.
`Cc1cc2[nH]c(=O)c(=O)[nH]c2c(F)c1S(=O)(=O)Nc1ccc(-c2cccc(Cl)c2)c(Cl)c1` [Compound 43, N-(2,3′-dichloro-[1,1′-biphenyl]-4-yl)-5-fluoro-7-methyl-2,3-dioxo-1,2,3,4-tetrahydroquinoxaline-6-sulfonamide]: the IC50 in experiment [1] fell in the range of 30 to 100 nM. The molecule further showed an EC50 in experiment [2] of 1000 to 6000 nM.
For `O=c1[nH]c2cc(Cl)c(S(=O)(=O)Nc3ccc(-c4ccoc4)c(Cl)c3)cc2[nH]c1=O` [Compound 44, 7-chloro-N-(3-chloro-4-(furan-3-yl)phenyl)-2,3-dioxo-1,2,3,4-tetrahydroquinoxaline-6-sulfonamide], the IC50 in experiment [1] was in the range of 30 to 100 nM. Besides, in experiment [2], the EC50 lay within 100 to 1000 nM.
For `Cc1cc(NS(=O)(=O)c2cc3[nH]c(=O)c(=O)[nH]c3cc2Cl)ccc1-c1ccccc1` [Compound 45, 7-chloro-N-(2-methyl-[1,1′-biphenyl]-4-yl)-2,3-dioxo-1,2,3,4-tetrahydroquinoxaline-6-sulfonamide] the same measures were 30 to 100 nM and 30 to 100 nM.
In experiment [1], `O=c1[nH]c2cc(Cl)c(S(=O)(=O)Nc3ccc(-c4ccc5c(c4)NCC5)c(Cl)c3)cc2[nH]c1=O` [Compound 46, 7-chloro-N-(3-chloro-4-(indolin-6-yl)phenyl)-2,3-dioxo-1,2,3,4-tetrahydroquinoxaline-6-sulfonamide] displayed an IC50 of 30 to 100 nM. The molecule further had an EC50 in experiment [2] of 100 to 1000 nM.
In turn, `O=c1[nH]c2cc(Cl)c(S(=O)(=O)Nc3ccc(OC(F)(F)F)cc3)cc2[nH]c1=O` [Compound 47, 7-chloro-2,3-dioxo-N-(4-(trifluoromethoxy)phenyl)-1,2,3,4-tetrahydroquinoxaline-6-sulfonamide] returned an IC50 in experiment [1] of 30 to 100 nM. In addition, the EC50 in experiment [2] fell in the range of 30 to 100 nM.
For the molecule `O=c1[nH]c2cc(Cl)c(S(=O)(=O)Nc3ccc(-c4cccnc4)c(Cl)c3)cc2[nH]c1=O` [Compound 48, 7-chloro-N-(3-chloro-4-(pyridin-3-yl)phenyl)-2,3-dioxo-1,2,3,4-tetrahydroquinoxaline-6-sulfonamide], in experiment [1], the IC50 lay within 30 to 100 nM. For the same molecule, in experiment [2], the EC50 was in the range of 1000 to 6000 nM.
The molecule `CCCc1ccc(NS(=O)(=O)c2cc3[nH]c(=O)c(=O)[nH]c3cc2C)cc1` [Compound 49, 7-methyl-2,3-dioxo-N-(4-propylphenyl)-1,2,3,4-tetrahydroquinoxaline-6-sulfonamide] registered an IC50 in experiment [1] of under 30 nM. The same molecule yielded an EC50 in experiment [2] of 30 to 100 nM.
`Cc1cc2[nH]c(=O)c(=O)[nH]c2cc1S(=O)(=O)Nc1ccc(C(F)(F)F)cc1` [Compound 50, 7-methyl-2,3-dioxo-N-(4-(trifluoromethyl)phenyl)-1,2,3,4-tetrahydroquinoxaline-6-sulfonamide] gave an IC50 in experiment [1] of 30 to 100 nM. Besides, the EC50 in experiment [2] lay within 30 to 100 nM.
In experiment [1], `Cc1cc2[nH]c(=O)c(=O)[nH]c2cc1S(=O)(=O)Nc1cc(C)c(-c2ccccc2F)c(C)c1` [Compound 51, N-(2′-fluoro-2,6-dimethyl-[1,1′-biphenyl]-4-yl)-7-methyl-2,3-dioxo-1,2,3,4-tetrahydroquinoxaline-6-sulfonamide] gave an IC50 of 30 to 100 nM. This molecule returned an EC50 in experiment [2] of 30 to 100 nM.
In turn, `Cc1ccc(-c2ccc(NS(=O)(=O)c3cc4[nH]c(=O)c(=O)[nH]c4cc3C)cc2Cl)s1` [Compound 52, N-(3-chloro-4-(5-methylthiophen-2-yl)phenyl)-7-methyl-2,3-dioxo-1,2,3,4-tetrahydroquinoxaline-6-sulfonamide] returned an IC50 in experiment [1] of 30 to 100 nM. The molecule also showed an EC50 in experiment [2] of 100 to 1000 nM.
For `Cc1cc2[nH]c(=O)c(=O)[nH]c2cc1S(=O)(=O)Nc1ccc(C2CC2)cc1` [Compound 53, N-(4-cyclopropylphenyl)-7-methyl-2,3-dioxo-1,2,3,4-tetrahydroquinoxaline-6-sulfonamide], in that order: 30 to 100 nM and under 30 nM.
In turn, `Cc1cc2[nH]c(=O)c(=O)[nH]c2cc1S(=O)(=O)Nc1ccc2c(c1)CCCC2` [Compound 54, 7-methyl-2,3-dioxo-N-(5,6,7,8-tetrahydronaphthalen-2-yl)-1,2,3,4-tetrahydroquinoxaline-6-sulfonamide] showed an IC50 in experiment [1] of 30 to 100 nM. The same molecule registered an EC50 in experiment [2] of 100 to 1000 nM.
